Data on nine compounds can be found in patent publication US20260317319A1, “NOVEL ERGOLINES AND METHODS OF TREATING MOOD DISORDERS” (Gilgamesh Pharma Inc., priority 2023, published 2026).

Molecules are shown by their SMILES. Like-named read-outs stand apart in the source and are kept apart here.

Data set [1] concerns the target T1, 5-HT2A receptor (Homo sapiens, UniProt P28223). Put plainly: cell-based. The following applies: Ca2+ flux; for Emax: HEK293, agonist, HEK293, max dose, read-out: 5-HT2A % Act @ Max Dose; for EC50: agonist, HEK293. The class given is cell-based. Set-up: expressed in transfected cells; host or cells: HEK293, stably transfected. As for the experimental part: (§1) Functional Assays at 5-HT2A, 5-HT2B, and 5-HT1A. Agonist activity at 5-HT2A, 5-HT2B, 5HT2C and 5-HT1A receptors was determined using a FLIPR Ca^2+ flux assay at WuXi AppTec (Hong Kong) Limited according to their standard protocols. Briefly, stably transfected cells expressing the receptor of interest and Gα15 in the case of 5-HT1A (HEK293 for 5-HT2A and 5-HT2B; CHO cells for 5-HT1A) were grown and plated in a 384 well plate and incubated at 37° C. and 5% CO2 overnight. A solution of 250 mM probenecid in 1 mL FLIPR assay buffer was prepared fresh. This was combined with a fluorescent dye (Fluo-4 Direct™) to make a final assay concentration of 2.5 mM. […] The fluorescent dye was then added to the assay plate along with assay buffer to a final volume of 40 μL. The cell plate was incubated for 50 min at 37° C. and 5% CO2 and placed into the FLIPR Tetra along with the compound plate. 10 μL of references and compounds were then transferred from the compound plate into the cell plate and the fluorescent signal was read.
For orientation: Calcium assays in cells follow changes in intracellular calcium, usually with a dye or a luminescent sensor.

The nature of data set [2]: in vitro. Conditions: mouse, microsomes, MLM (male CD-1) 0.50 mg/mL, NADPH 1 mM, 1 μM compound, pH 7.4, 37° C., 60 min; for microsomal CLint: read-out: Intrinsic clearance (Clint); for half-life: read-out: half-life (t1/2). The class given is in vitro ADME, mouse. The text has this:
MLM Stability Pooled MLM from male CD-1 mice (BIOIVT M00501) were used.

Data set [3] can be described thus: in vitro. The class given is in vitro ADME, human. The following applies: human, microsomes, HLM 0.50 mg/mL, NADPH 1 mM, 1 μM compound, pH 7.4, 37° C., 60 min; for microsomal CLint: read-out: Intrinsic clearance (Clint); for half-life: read-out: half-life (t1/2).
The target of data set [4] is T1, 5-HT2A receptor. Put plainly: biochemical. It counts as binding. On the set-up: expressed in transfected cells; host or cells: HEK293, stably transfected. Conditions: [3H]ketanserin 1 nM; HEK293 stable cell line; 1 h, 25 °C. As for the experimental part:
Affinity of the test compounds for the 5-HT2A receptor was determined in radioligand binding experiments with [^3H]ketanserin by WuXi AppTec (Hong Kong) Limited, using methods adapted from the literature and under conditions described in Table 1.

Another data set has as its target T2, 5-HT2B receptor (Homo sapiens, UniProt P41595).
T2 construct: expressed in transfected cells; host or cells: HEK293, stably transfected
Put plainly: cell-based. The class given is cell-based. Conditions: Ca2+ flux; for Emax: HEK293, agonist, HEK293, max dose, read-out: 5-HT2B % Act @ Max Dose; for EC50: agonist, HEK293. The method, then:
as §1

Another data set deals with T3, 5-HT1A receptor (Homo sapiens, UniProt P08908).
T3 construct: expressed in transfected cells; host or cells: CHO cells, stably transfected
T3 sequence (P08908 1-422): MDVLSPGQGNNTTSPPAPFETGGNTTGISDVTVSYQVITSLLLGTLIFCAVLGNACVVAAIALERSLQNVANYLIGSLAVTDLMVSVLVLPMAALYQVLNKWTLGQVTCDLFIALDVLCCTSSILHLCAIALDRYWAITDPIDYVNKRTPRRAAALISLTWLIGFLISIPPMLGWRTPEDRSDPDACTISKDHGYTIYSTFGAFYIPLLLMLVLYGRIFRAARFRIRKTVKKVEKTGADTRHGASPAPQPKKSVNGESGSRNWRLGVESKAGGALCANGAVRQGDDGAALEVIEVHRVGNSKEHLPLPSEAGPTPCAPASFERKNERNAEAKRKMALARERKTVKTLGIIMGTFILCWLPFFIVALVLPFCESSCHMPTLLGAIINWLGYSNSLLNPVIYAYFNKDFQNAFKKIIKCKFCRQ
Put plainly: cell-based. The following applies: agonist, Ca2+ flux; for Emax: CHO, CHO cells with Gα15, max dose, read-out: 5-HT1A % Act @ Max Dose; for EC50: CHO cells with Gα15. The method, then:
as §1

Data set [5] in a line: in vitro. It counts as in vitro ADME, rat. The following applies: rat, microsomes, RLM (male Sprague-Dawley) 0.50 mg/mL, NADPH 1 mM, 1 μM compound, pH 7.4, 37° C., 60 min; for microsomal CLint: read-out: Intrinsic clearance (Clint); for half-life: read-out: half-life (t1/2). The text has this:
RLM Stability Pooled RLM from male Sprague-Dawley rats (Xenotech R1000) were used.

T1 sequence (P28223 whole entry): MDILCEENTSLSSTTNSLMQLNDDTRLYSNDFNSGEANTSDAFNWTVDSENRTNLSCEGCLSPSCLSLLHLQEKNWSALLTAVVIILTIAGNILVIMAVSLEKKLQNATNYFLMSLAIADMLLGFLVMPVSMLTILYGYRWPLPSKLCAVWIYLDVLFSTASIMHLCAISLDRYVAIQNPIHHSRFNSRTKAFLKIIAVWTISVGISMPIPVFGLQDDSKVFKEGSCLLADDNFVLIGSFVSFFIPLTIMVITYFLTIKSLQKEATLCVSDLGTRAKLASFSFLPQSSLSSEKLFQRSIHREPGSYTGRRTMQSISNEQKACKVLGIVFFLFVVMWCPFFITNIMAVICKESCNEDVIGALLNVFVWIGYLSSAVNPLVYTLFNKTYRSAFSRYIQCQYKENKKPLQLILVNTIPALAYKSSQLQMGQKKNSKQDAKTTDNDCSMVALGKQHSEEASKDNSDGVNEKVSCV
T2 sequence (P41595 whole entry): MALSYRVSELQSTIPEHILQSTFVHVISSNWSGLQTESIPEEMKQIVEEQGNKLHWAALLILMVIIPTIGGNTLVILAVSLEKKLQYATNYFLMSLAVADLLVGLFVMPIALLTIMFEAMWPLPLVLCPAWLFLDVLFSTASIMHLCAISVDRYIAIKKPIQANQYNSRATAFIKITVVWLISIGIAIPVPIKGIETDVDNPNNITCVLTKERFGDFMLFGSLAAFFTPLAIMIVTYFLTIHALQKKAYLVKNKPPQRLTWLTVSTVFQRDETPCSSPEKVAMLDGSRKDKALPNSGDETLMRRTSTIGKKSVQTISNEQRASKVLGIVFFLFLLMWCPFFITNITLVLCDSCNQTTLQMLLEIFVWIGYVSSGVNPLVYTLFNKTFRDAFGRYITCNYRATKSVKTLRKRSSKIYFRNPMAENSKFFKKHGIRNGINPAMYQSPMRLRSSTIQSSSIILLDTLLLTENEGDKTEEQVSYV

For `CCN(CC)C(=O)[C@@H]1C=C2c3cccc4[nH]cc(c34)C[C@H]2N(Cc2cccc3ccccc23)C1` [Compound 101, (6aR,9R)—N,N-diethyl-7-(naphthalen-1-ylmethyl)-4,6,6a,7,8,9-hexahydroindolo[4,3-fg]quinoline-9-carboxamide], the Emax on 5-HT2A receptor [1] was 86.5%; at 5-HT2B receptor, 11.7%; on 5-HT1A receptor it was 61.8%. Also, the EC50 (usually the concentration needed to bring the measured effect to its halfway point) at 5-HT2A receptor [1] is 271 nM; at 5-HT2B receptor, over 10000 nM; at 5-HT1A receptor, 71100 nM. In addition, the microsomal CLint turned out to be 483 µL/min/mg in “in vitro [2]”, 84.6 µL/min/mg in “in vitro [3]” and 525 µL/min/mg in the data set “in vitro [5]”. Moreover, the half-life worked out at 2.9 min in the data set “in vitro [2]”, 16.4 min in “in vitro [3]” and 2.6 min in “in vitro [5]”. Also, on 5-HT2A receptor [4], the inhibition constant (Ki) – broadly, the dissociation constant of the complex between target and ligand, obtained from inhibition or displacement – worked out at 24.5 nM.
Regarding `CC[C@@H](C)NC(=O)[C@@H]1C=C2c3cccc4[nH]cc(c34)C[C@H]2N(Cc2ccccc2)C1` [Compound 88, (6aR,9R)-7-benzyl-N—((R)-sec-butyl)-4,6,6a,7,8,9-hexahydroindolo[4,3-fg]quinoline-9-carboxamide], the Emax at 5-HT2A receptor [1] is 73.6%; on 5-HT2B receptor it was 0.88%; at 5-HT1A receptor it was 76.7%. The concentration giving a half-maximal response (EC50) at 5-HT2A receptor [1] is 347 nM; on 5-HT2B receptor, over 10000 nM; at 5-HT1A receptor, 8710 nM. For the same compound, the microsomal CLint in the data set “in vitro [2]” came to 774 µL/min/mg; in “in vitro [3]” it was 455 µL/min/mg; in the data set “in vitro [5]” it was 246 µL/min/mg. In addition, the figures for the half-life in the data set “in vitro [2]”, in the data set “in vitro [3]” and in “in vitro [5]” were 1.8 min, 3 min and 5.6 min, respectively. This compound also came in with an inhibitory constant (Ki) at 5-HT2A receptor [4] of 3.1 nM.
`CCN(CC)C(=O)[C@@H]1C=C2c3cccc4[nH]cc(c34)C[C@H]2N(Cc2cccs2)C1` [Compound 104]: the EC50 stood at 844 nM at 5-HT2A receptor [1], 731 nM at 5-HT2B receptor and 730 nM at 5-HT1A receptor. This compound also displayed a Ki on 5-HT2A receptor [4] of 1.42 nM.
In the case of `O=C([C@@H]1C=C2c3cccc4[nH]cc(c34)C[C@H]2N(Cc2ccccc2)C1)N1CCCC1` [Compound 84, ((6aR,9R)-7-benzyl-4,6,6a,7,8,9-hexahydroindolo[4,3-fg]quinolin-9-yl)(pyrrolidin-1-yl)methanone], the Emax at 5-HT2A receptor [1] was 68.9%; at 5-HT2B receptor, 5.16%; at 5-HT1A receptor, 40.3%. Also, the half-maximal effective concentration (EC50) at 5-HT2A receptor [1] was 895 nM; at 5-HT2B receptor, over 10000 nM; on 5-HT1A receptor, 1690 nM. Further, the figures for the microsomal CLint in “in vitro [2]”, in “in vitro [3]” and in the data set “in vitro [5]” were 146 µL/min/mg, 89.7 µL/min/mg and 101 µL/min/mg, respectively. Also, the results for the half-life in the data set “in vitro [2]”, in the data set “in vitro [3]” and in the data set “in vitro [5]” were 9.5 min, 15.5 min and 13.7 min, respectively. Also, affinity on 5-HT2A receptor [4] was put at a Ki of 17.8 nM.
`CCN(CC)C(=O)[C@H]1C=C2c3cccc4[nH]cc(c34)C[C@H]2N(CC2CCCC2)C1` [Compound 90a, (6aR,9S)-7-(cyclopentylmethyl)-N,N-diethyl-4,6,6a,7,8,9-hexahydroindolo[4,3-fg]quinoline-9-carboxamide]: the values for the Emax on 5-HT2A receptor [1], at 5-HT2B receptor and at 5-HT1A receptor were 25.7%, 21.9% and 135%, respectively. Further, the EC50 is over 1000 nM on 5-HT2A receptor [1], over 10000 nM at 5-HT2B receptor and over 100000 nM on 5-HT1A receptor. The microsomal CLint in the data set “in vitro [2]” amounted to 712 µL/min/mg; in the data set “in vitro [3]”, 158 µL/min/mg; in the data set “in vitro [5]” it was 288 µL/min/mg. In addition, the figures for the half-life in the data set “in vitro [2]”, in “in vitro [3]” and in “in vitro [5]” were 1.9 min, 8.8 min and 4.8 min, respectively. At 5-HT2A receptor [4], this compound displayed an inhibitory constant (Ki) of 55.6 nM.
On to `CCN(CC)C(=O)[C@@H]1C=C2c3cccc4[nH]cc(c34)C[C@H]2N(Cc2ccc3ccccc3c2)C1` [Compound 100, (6aR,9R)—N,N-diethyl-7-(naphthalen-2-ylmethyl)-4,6,6a,7,8,9-hexahydroindolo[4,3-fg]quinoline-9-carboxamide], for which the Emax on 5-HT2A receptor [1] worked out at 74.6%; at 5-HT2B receptor, 18.4%; on 5-HT1A receptor, 68.4%. Further, the values for the EC50 at 5-HT2A receptor [1], at 5-HT2B receptor and on 5-HT1A receptor were 1080 nM, over 10000 nM and 20800 nM, respectively. Moreover, the values for the microsomal CLint in “in vitro [2]”, in “in vitro [3]” and in the data set “in vitro [5]” were 117 µL/min/mg, 43.9 µL/min/mg and 167 µL/min/mg, respectively. In addition, the half-life was determined as 11.8 min in “in vitro [2]”, 31.6 min in “in vitro [3]” and 8.3 min in the data set “in vitro [5]”. The compound also returned an inhibitory constant (Ki) on 5-HT2A receptor [4] of 3.84 nM.
For the compound `COc1cccc(CN2C[C@H](C(=O)N3[C@@H](C)C[C@@H]3C)C=C3c4cccc5[nH]cc(c45)C[C@H]32)c1` [Compound 94, ((2S,4S)-2,4-dimethylazetidin-1-yl)((6aR,9R)-7-(3-methoxybenzyl)-4,6,6a,7,8,9-hexahydroindolo[4,3-fg]quinolin-9-yl)methanone], the Emax at 5-HT2A receptor [1] is 30.4%; at 5-HT2B receptor, -1.21%; on 5-HT1A receptor it was 64.8%. In addition, the half-maximal effective concentration (EC50) at 5-HT2A receptor [1] was 792 nM; at 5-HT2B receptor, over 10000 nM; at 5-HT1A receptor, over 100000 nM. In addition, the microsomal CLint in the data set “in vitro [2]” amounted to 1340 µL/min/mg; in the data set “in vitro [3]” it was 116 µL/min/mg; in “in vitro [5]” it was 352 µL/min/mg. Besides, the figures for the half-life in “in vitro [2]”, in “in vitro [3]” and in the data set “in vitro [5]” were 1 min, 11.9 min and 3.9 min, respectively. Further, affinity at 5-HT2A receptor [4] was put at a Ki of 13.7 nM.
As for `CCN(CC)C(=O)[C@@H]1C=C2c3cccc4[nH]cc(c34)C[C@H]2N(Cc2cccc(C)c2)C1` [Compound 98, (6aR,9R)—N,N-diethyl-7-(3-methylbenzyl)-4,6,6a,7,8,9-hexahydroindolo[4,3-fg]quinoline-9-carboxamide], the Emax at 5-HT2A receptor [1] was 76.5%; at 5-HT2B receptor, 3.37%; on 5-HT1A receptor, 31.2%. Besides, the figures for the EC50 on 5-HT2A receptor [1], on 5-HT2B receptor and on 5-HT1A receptor were 431 nM, over 10000 nM and over 100000 nM, respectively. The microsomal CLint in “in vitro [2]” turned out to be 470 µL/min/mg; in “in vitro [3]” it was 91.4 µL/min/mg; in “in vitro [5]” it was 717 µL/min/mg. For the same compound, the figures for the half-life in the data set “in vitro [2]”, in “in vitro [3]” and in “in vitro [5]” were 3 min, 15.2 min and 1.9 min, respectively. The compound also displayed a Ki at 5-HT2A receptor [4] of 8.26 nM.
With `CCCN(CC)C(=O)[C@@H]1C=C2c3cccc4[nH]cc(c34)C[C@H]2N(Cc2cccc(OC)c2)C1` [Compound 93, (6aR,9R)—N-ethyl-7-(3-methoxybenzyl)-N-propyl-4,6,6a,7,8,9-hexahydroindolo[4,3-fg]quinoline-9-carboxamide], the Emax amounted to 44.6% at 5-HT2A receptor [1], 1.24% at 5-HT2B receptor and 21.1% at 5-HT1A receptor. In addition, the figures for the concentration giving a half-maximal response (EC50) at 5-HT2A receptor [1], on 5-HT2B receptor and at 5-HT1A receptor were 1200 nM, over 10000 nM and over 100000 nM, respectively. Besides, the microsomal CLint came out at 600 µL/min/mg in the data set “in vitro [2]”, 152 µL/min/mg in “in vitro [3]” and 423 µL/min/mg in the data set “in vitro [5]”. For the same compound, the figures for the half-life in “in vitro [2]”, in the data set “in vitro [3]” and in the data set “in vitro [5]” were 2.3 min, 9.1 min and 3.3 min, respectively. The affinity on 5-HT2A receptor [4] corresponds to a Ki of 4.73 nM.
